In publication PMC4929945, “Structural and functional analysis of the solute-binding protein UspC from Mycobacterium tuberculosis that is specific for amino sugars” (Open Biology, 2016):

Assays:
[1] = target: T1, UspC (Mtb-UspC, Rv2318), solute-binding protein of the UspABC transporter (Mycobacterium tuberculosis, UniProt P71894); test: thermal shift saturation binding (Kd,app), Tm shift […]°C at […]
T1 construct: UspCNt, N-terminally truncated, residues 31–441, His6-tagged

[2] = target: T1, UspC (Mtb-UspC, Rv2318), solute-binding protein of the UspABC transporter; test: STD-NMR ([…] ligand, […] protein) and thermal shift

T1 sequence (P71894 entry or part of it): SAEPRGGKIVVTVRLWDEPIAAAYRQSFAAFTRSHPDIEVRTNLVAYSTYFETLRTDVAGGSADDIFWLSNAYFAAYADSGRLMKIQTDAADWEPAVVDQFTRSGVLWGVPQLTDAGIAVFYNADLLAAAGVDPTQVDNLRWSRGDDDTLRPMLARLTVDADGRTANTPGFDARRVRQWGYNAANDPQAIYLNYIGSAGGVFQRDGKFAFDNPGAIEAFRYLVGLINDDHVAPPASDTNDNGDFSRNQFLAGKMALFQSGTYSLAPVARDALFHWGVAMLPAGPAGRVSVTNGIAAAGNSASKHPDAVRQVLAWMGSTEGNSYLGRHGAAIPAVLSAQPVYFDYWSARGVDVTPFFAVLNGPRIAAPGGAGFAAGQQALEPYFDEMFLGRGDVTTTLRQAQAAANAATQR

SMILES | Kd [1] [mM] | STD-NMR (50 mM ligand, 30 μM protein) and thermal shift [2]
N[C@H]1C(O)O[C@H](COP(=O)(O)O)[C@@H](O)[C@@H]1O (stereo partly drawn) [D-glucosamine-6-phosphate] | 27.7 ± 6.4 | 
N[C@H]1C(O)O[C@H](CO)[C@@H](O)[C@@H]1O (stereo partly drawn) [D-glucosamine] |  | H2 (α and β) and H4 (α and β) of D-glucosamine interact non-covalently with Mtb-UspCNt
